Reference: patent US20050288347A1, “Certain triazole-based compounds, compositions, and uses thereof” (priority 2004, published 2005)
Entries after “also recorded” stand apart in the source; their conditions may differ.

Target: protein kinase
Assay: HTS ATP-utilizing enzyme assay, off-chip mobility-shift format (Caliper HTS 250)
Format: biochemical, human
Conditions: test compound 10 μM; for Kinase: kinase(s) for which the compound exhibits protein kinase inhibitory activity, active = greater than three-sigma from the mean activity of inactive compounds; for protein kinase against which the compound exhibits inhibitory activity (Table 3): active = activity greater than three-sigma from the mean of the predominately inactive population for that enzyme
How it was run: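 Kinase reactions ran 2.5 h at 20 to 22 °C with test compound at 10 μM, in a HEPES pH 7.5 master buffer containing Triton X-100 and BSA. Peptide substrate and phosphorylated product separated by mobility shift; inhibition normalized to DMSO (0%) and EDTA (100%) controls, with three-sigma thresholds for hits.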

Compound	Kinase	protein kinase against which the compound exhibits inhibitory activity (Table 3)
O=C(CSc1nnc(CNc2ccc(F)cc2)n1CC1CCCO1)N1CCCc2ccccc21 (stereo not shown)	AKT1	–
CC(=O)c1ccc(-n2c(SCCCCc3ccccc3)nnc2-c2cccc(Cl)c2)cc1	–	INSR
CCC(O)CSc1nnc(-c2cccc(Cl)c2)n1-c1ccccc1OC (stereo not shown)	–	ROCK2
Cn1c(SCC(=O)N2CCCCCC2)nnc1-c1ccc(S(=O)(=O)N2CCCC2)cc1	c-TAK1	–
O=C(CSc1nnc(-c2ccc(O)cc2)n1-c1cccc(Cl)c1)Nc1ccccc1	GSK3-α	–
O=C(CSc1nnc(-c2ccc(O)cc2)n1Cc1ccco1)Nc1nc2c(s1)CCCC2	GSK3-β; also recorded: GSK3-α	–
NC(=O)CSc1nnc(-c2ccc(O)cc2)n1Cc1ccco1	GSK3-β; also recorded: GSK3-α	–
COc1ccccc1-n1c(SCC(=O)Nc2ccccc2)nnc1-c1ccccc1O	–	AURORA-A
COc1ccccc1-n1c(SCC(O)c2ccccc2)nnc1-c1cccc(Cl)c1 (stereo not shown)	–	ROCK2
COc1ccccc1-n1c(SCC(=O)c2ccc3c(c2)OCCO3)nnc1-c1cccc(Cl)c1	–	ROCK2
COc1ccccc1-n1c(SCC(=O)c2ccc(Cl)s2)nnc1-c1cccc(Cl)c1	–	ROCK2
COc1ccccc1-n1c(SCC(=O)Nc2ccccc2)nnc1-c1cccc(Cl)c1	–	ROCK2
COc1ccccc1-n1c(SCC(=O)c2ccc(F)cc2)nnc1-c1cccc(Cl)c1	–	ROCK2
COc1ccccc1-n1c(SCCN)nnc1-c1cccc(Cl)c1	–	PIM-1-KINASE
COc1ccccc1-n1c(SC2Cc3ccccc3C2=O)nnc1-c1cccc(Cl)c1 (stereo not shown)	–	ROCK2
C=C(C)Cn1c(SCC(=O)NN)nnc1-c1ccc(Br)cc1	–	LCK
Cc1cc(NC(=O)CSc2nnc(-c3ccc(O)cc3)n2C)no1	GSK3-β; also recorded: GSK3-α	–
CCn1c(SCC(=O)NNC(=O)Cc2ccccc2)nnc1-c1ccc(Cl)cc1	–	FYN
COc1ccccc1-n1c(SCc2ccc(Cl)nc2)nnc1-c1cccc(Cl)c1	–	ROCK2
Cn1c(SCC(=O)NNC(=O)c2ccccc2O)nnc1-c1ccccc1	–	FYN and FLT-3 and CSK
Cc1ccc(-n2c(SCC(=O)NNC(=O)c3ccccc3O)nnc2-c2ccccc2O)cc1	–	AURORA-A
COc1ccccc1-n1c(SCCn2cccc2)nnc1-c1cccc(Cl)c1	–	ROCK2
COc1ccccc1-n1c(SCc2ccc(F)c(F)c2)nnc1-c1cccc(Cl)c1	–	ROCK2

Compound	Kinase	protein kinase against which the compound exhibits inhibitory activity (Table 3)
COc1ccccc1-c1nnc(SCCC(=O)O)n1-c1cccc(Cl)c1	–	CHEK2
COc1ccc(-n2c(SCCC(=O)O)nnc2-c2ccc(NC(=O)c3ccccc3)cc2)cc1	–	CHEK2; also recorded: AURORA-A
COc1ccc(-n2c(COc3ccccc3OC)nnc2SCCC(=O)O)cc1	–	CDK1
COc1ccccc1-n1c(SCc2cccc(C(=O)O)c2)nnc1-c1cccc(Cl)c1	–	ROCK2
COc1ccccc1-n1c(SCc2ccc(C(=O)O)cc2)nnc1-c1cccc(Cl)c1	–	AURORA-A
COc1ccccc1-n1c(SCc2csc(C)n2)nnc1-c1cccc(Cl)c1	–	ROCK2
COc1ccc(-c2nnc(SCC(=O)NNC(=O)c3ccc(Br)cc3)n2C)cc1	–	CHEK2; also recorded: GSK3-β; also recorded: GSK3-α
O=C(CSc1nnc(-c2ccc(O)cc2)n1-c1ccccc1)NNC(=O)c1ccc(Cl)cc1	–	AURORA-A
COc1ccc(-n2c(CNc3ccc(F)cc3)nnc2SC)cc1	–	AKT1
COc1ccc(C(=O)NNC(=O)CSc2nnc(C)n2CC2CCCO2)cc1 (stereo not shown)	–	SYK
COc1ccc(C(=O)NNC(=O)CSc2nnc(C)n2CCc2ccccc2)cc1	–	DGFRR-α
COc1ccccc1-n1c(SCCC2COCCN2)nnc1-c1cccc(Cl)c1 (stereo not shown)	–	ROCK2
Cc1ccc(NCc2nnc(S)n2CC2CCCO2)cc1Cl (stereo not shown)	GSK3-β; also recorded: GSK3-α	–
COc1ccc(NC(=O)CSc2nnc(-c3ccccc3O)n2-c2ccc(C)cc2)c(OC)c1	MSK2 and CDK1	–
COc1ccccc1-n1c(SCC(=O)Nc2cccc(NC(=O)C3CCCO3)c2)nnc1-c1ccccc1O (stereo not shown)	–	AURORA-A
CC(=O)c1ccc(NC(=O)CSc2nnc(-c3ccc(O)cc3)n2C)cc1	AKT1	–
COc1ccccc1-n1c(SCC(=O)Nc2ccc(Cl)cc2)nnc1-c1ccccc1O	–	KIT and AURORA-A
CCc1nnc(NC(=O)CSc2nnc(-c3ccc(O)cc3)n2-c2ccc(OC)cc2)s1	GSK3-β and GSK3-α and AKT1	–
CCOc1ccc2nc(NC(=O)CSc3nnc(-c4ccncc4)n3CC3CCCO3)sc2c1 (stereo not shown)	PDGFRR-α and GSK3-α and ABL1	–
O=C(CSc1nnc(-c2ccc(O)cc2)n1-c1ccccc1)NN(Br)C(=O)c1ccccc1	–	AURORA-A
Cn1c(SCC(=O)NN(Br)C(=O)c2ccccc2)nnc1C1CCCCC1	–	SGK1
COCCCn1c(SCC(=O)NN(O)C(=O)c2ccccc2)nnc1-c1ccncc1	–	AURORA-A
COc1ccccc1-n1c(SCC(=O)NN(O)C(=O)c2ccccc2)nnc1-c1ccccc1O	–	FYN and FLT-3 and SYK

Compound	Kinase	protein kinase against which the compound exhibits inhibitory activity (Table 3)
O=C(CSc1nnc(-c2ccncc2)n1-c1ccc(F)cc1)NN(O)C(=O)c1ccccc1	–	FYN
COc1ccc(C(=O)NNC(=O)CSc2nnc(-c3ccc(O)cc3)n2Cc2ccco2)cc1	–	GSK3-β; also recorded: AURORA-A; also recorded: PDGFRR-α
O=C(CSc1nnc(-c2ccccc2O)n1Cc1ccccc1)NNC(=O)c1ccccc1O	–	FYN and HCK
O=C(CSc1nnc(-c2cccnc2)n1Cc1ccccc1)NNC(=O)c1ccc(Br)cc1	–	PDGFRR-α; also recorded: AURORA-A
O=C(CSc1nnc(-c2ccccc2)n1Cc1ccccc1)NNC(=O)c1ccccc1O	–	FYN and CSK
CCn1c(SCC(=O)NNC(=O)c2ccc(OC)cc2)nnc1-c1ccc(O)cc1	–	GSK3-a; also recorded: AURORA-A
CCn1c(SCC(=O)NNC(=O)C2CCCCC2)nnc1-c1ccncc1	–	AURORA-A
Cc1ccc(C(=O)NNC(=O)CSc2nnc(Cc3ccccc3)n2Cc2ccccc2)cc1	–	DAPK-1
COc1ccc(-c2nnc(SCC(=O)NNC(=O)c3ccccc3O)n2-c2ccccc2)cc1OC	–	FYN and FLT-3
CCn1c(CNc2ccccc2Cl)nnc1SCC(=O)NNC(=O)c1ccc(OC)cc1	–	AURORA-A; also recorded: DYRK2
COc1ccc(C(=O)NNC(=O)CSc2nnc(CNc3cccc(Cl)c3)n2CCc2ccccc2)cc1	–	PDGFRR-α and GSK3-β and CDK1
Cc1ccc(C(=O)NNC(=O)CSc2nnc(COc3ccc(C#N)cc3)n2-c2ccccc2)cc1	–	LCK
COc1ccc(NCc2nnc(SCC(=O)NNC(=O)c3ccc(C)cc3)n2C)cc1	–	PDGFRR-α and FYN and FLT-3
Cc1cc(C)nc(SCc2nnc(SCC(=O)NNC(=O)c3ccccc3O)n2-c2ccccc2)n1	–	FYN and SRC and HCK
Cc1cc(C)nc(SCc2nnc(SCC(=O)NNC(=O)c3ccccc3O)n2C)n1	–	FYN and SRC and FLT-3
COc1ccc(-n2c(SCC(=O)NNC(C)=O)nnc2-c2ccncc2)cc1	–	FYN
Cn1c(Cn2nnc3ccccc32)nnc1SCC(=O)C1c2ccccc2CCc2ccccc21	–	MAPKAPK-2
CCN(CC)S(=O)(=O)c1ccc(-c2nnc(SCC(=O)N3c4ccccc4CCc4ccccc43)n2CC)cc1	–	DAPK1
Cc1cccc(OCc2nnc(SCC(=O)N3c4ccccc4CCc4ccccc43)n2C)c1C	–	MSK2
COc1cc2c(cc1NC(=O)CSc1nncn1C)oc1ccccc12	–	CHEK2 and INSR and AURORA-A
O=C(CSc1nnc[nH]1)N1c2ccccc2CCc2ccccc21	–	LCK
